# Test results reported in patent publication US20250222068A1, “COMPOSITION FOR PREVENTING OR TREATING LUPUS COMPRISING RECOMBINANT STABILIZED GALECTIN-9 PROTEIN” (GBIOLOGICS INC., priority 2022, published 2025).
# Assay: Body weight assessment in an in vivo model of systemic lupus erythematosus
# Conditions: mycophenolate 60 mg/kg PO once daily, 9 weeks, MRL/FAS^lpr mice, FIG. 1
smiles,measurement,value
"COc1c(C)c2c(c(O)c1C/C=C(\C)CCC(=O)O)C(=O)OC2 [Mycophenolate, mycophenolate]",changes in body weight,no statistically significant changes in body weight
